Structures are written as SMILES.

The term EC50 denotes the concentration needed to bring the measured effect to its halfway point.

The target in assay [1] is T1, Transcription factor p65 (Human, UniProt Q04206). As to the kind of experiment: Induction of NF-kappaB p65 nuclear translocation in HUVEC cells by immunostaining.
In assay [2] the target is T1, Transcription factor p65. Description: Potentiation of TNF-alpha-induced NF-kappaB p65 nuclear translocation in HUVEC cells by immunostaining.

T1 sequence (Q04206 whole entry): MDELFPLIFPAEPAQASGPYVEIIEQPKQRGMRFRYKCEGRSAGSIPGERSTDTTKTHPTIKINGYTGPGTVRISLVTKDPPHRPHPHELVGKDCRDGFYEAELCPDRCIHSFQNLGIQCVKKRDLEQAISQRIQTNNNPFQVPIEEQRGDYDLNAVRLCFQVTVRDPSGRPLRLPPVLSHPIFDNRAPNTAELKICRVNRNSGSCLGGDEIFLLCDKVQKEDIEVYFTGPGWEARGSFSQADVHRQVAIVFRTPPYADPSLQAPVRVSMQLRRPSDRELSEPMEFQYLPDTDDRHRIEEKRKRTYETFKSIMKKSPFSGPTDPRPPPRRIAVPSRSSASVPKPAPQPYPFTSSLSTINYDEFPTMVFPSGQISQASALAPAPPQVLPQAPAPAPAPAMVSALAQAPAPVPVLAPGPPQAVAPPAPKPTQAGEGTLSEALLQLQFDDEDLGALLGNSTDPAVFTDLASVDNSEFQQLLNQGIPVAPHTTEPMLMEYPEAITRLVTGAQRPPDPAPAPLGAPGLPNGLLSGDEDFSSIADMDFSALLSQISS

As to `COc1cccc2nc(-c3cccs3)nc(NN3C(=O)C=C(C)C3=O)c12` [1-(5-Methoxy-2-thiophen-2-yl-quinazolin-4-ylamino)-3-methyl-pyrrole-2,5-dione], the results for the EC50 on Transcription factor p65 [1] and on Transcription factor p65 [2] were 1600 nM and 380 nM, respectively.

With `COc1ccc2nc(-c3cccs3)nc(NN3C(=O)C=C(C)C3=O)c2c1` [1-(6-methoxy-2-(thiophen-2-yl)quinazolin-4-ylamino)-3-methyl-1H-pyrrole-2,5-dione], the figures for the EC50 on Transcription factor p65 [1] and at Transcription factor p65 [2] were 9800 nM and 42000 nM, respectively.

On to `COc1ccc(Cl)c2nc(-c3cccs3)nc(NN3C(=O)C=C(C)C3=O)c12` [1-(8-chloro-5-methoxy-2-(thiophen-2-yl)quinazolin-4-ylamino)-3-methyl-1H-pyrrole-2,5-dione], for which the EC50 on Transcription factor p65 [1] worked out at 2400 nM; at Transcription factor p65 [2] it was 310 nM.

Values taken from BindingDB's records for doi:10.1016/j.bmcl.2008.12.086 (Columbia University, 2009).
